Data as given in US5571942A, “Ring-substituted 2-amino-1,2,3,4-tetrahydronaphthalenes and 3-aminochromanes” (Eli Lilly and Company, priority 1995, dated 1996).

Assays:
Parameters in all cases: species or system rat (male Sprague-Dawley)
[1] = target: T1, 5-HT1A receptors (Rattus norvegicus, UniProt P19327); assay: in vitro binding: inhibition of 3H-8-OH-DPAT binding to synaptosomal membranes from rat cerebral cortex; conditions: 3H-8-OH-DPAT 2 nM, 37° C., 10 min, pH 7.4
T1 construct: from tissue; host or cells: cerebral cortex (crude synaptosomal membranes) of male Sprague-Dawley rats
T1 sequence (P19327 1-422): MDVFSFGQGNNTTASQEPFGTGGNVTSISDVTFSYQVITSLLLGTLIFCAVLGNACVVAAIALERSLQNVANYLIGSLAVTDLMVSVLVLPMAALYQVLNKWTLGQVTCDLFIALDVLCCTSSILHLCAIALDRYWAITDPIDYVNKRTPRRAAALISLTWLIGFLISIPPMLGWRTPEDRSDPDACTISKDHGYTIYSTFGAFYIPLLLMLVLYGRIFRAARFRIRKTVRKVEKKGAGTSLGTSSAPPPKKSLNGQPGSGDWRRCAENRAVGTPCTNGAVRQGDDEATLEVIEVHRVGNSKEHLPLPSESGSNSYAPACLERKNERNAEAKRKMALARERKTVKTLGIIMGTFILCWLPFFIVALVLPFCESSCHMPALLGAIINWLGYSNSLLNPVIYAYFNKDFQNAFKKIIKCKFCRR
From the text: Sites specifically labeled by tritiated 8-hydroxy-2-dipropylamino-1,2,3,4-tetrahydronaphthalene (^3 H-8-OH-DPAT) have been identified as 5-HT1A receptors. This general procedure is set forth in Wong et al., J. Neural Transm. 71:207-218 (1988).
Male Sprague-Dawley rats (110-150 g) from Harlan Industries (Cumberland, Ind.) were fed a Purina Chow ad libitum for at least 3 days before being used in the studies. Rats were killed by decapitation. The brains were rapidly removed, and the cerebral cortices were dissected out at 4° C.
Brain tissues were homogenized in 0.32M sucrose. After centrifugation at 1000×g for 10 min and then at 17000×g for 20 min, a crude synaptosomal fraction was sedimented. The pellet was suspended in 100 vol of 50 mM Tris-HCl, pH 7.4, incubated at 37° C. for 10 min, and centrifuged at 50000×g for 10 min. The process was repeated and the final pellet was suspended in ice-chilled 50 mM Tris-HCl, pH 7.4.
Binding of ^3 H-8-OH-DPAT was performed according to the previously described method [Wong et al., J. Neural Transm. 64:251-269 (1985)]. Briefly, synaptosomal membranes isolated from cerebral cortex were incubated at 37° C. for 10 min. in 2 ml of 50 mM Tris-HCl, pH 7.4; 10 mM pargyline; 0.6 mM ascorbic acid; 5 mM CaCl2; 2 nM ^3 H-8-OH-DPAT and 0.1 to 1000 nm of the compound of interest. Binding was terminated by filtering samples under reduced pressure through glass fiber (GFB) filters. The filters were washed twice with 5 ml of ice cold buffer and placed in scintillation vials with 10 ml of PCS (Amersham/Searle) scintillation fluid. Radioactivity was measured with a liquid scintillation spectrometer. Unlabeled 8-OH-DPAT at 10 μM was also included in separate samples to establish non-specific binding. Specific binding of ^3 H-8-OH-DPAT is defined as the difference of radioactivity bound in the absence and in the presence of 10 μM unlabeled 8-OH-DPAT.
(§1) The results provided in columns 3-5 are indicative of 5-HT1A agonist activity.

[2] = target: T1, 5-HT1A receptors; assay: in vivo lowering of brain 5-HIAA levels (5-HT1A agonist activity); conditions: sc, one hour after treatment
Experimental: (§2) Compounds of this invention were also examined for their in vivo effects on brain 5-HIAA and serum corticosterone levels. Male Sprague-Dawley rats weighting 150-200 g were administered subcutaneously or orally with aqueous solutions of the test compound. One hour after treatment, the rats were decapitated and trunk blood collected. The blood was allowed to clot and then was centrifuged to separate the serum. The concentration of corticosterone in the serum was determined by the spectrofluorometric method of Solem, J. H.; Brinck-Johnsen, T., Scand. J. Clin. Invest. [Suppl. 80], 17, 1 (1965). The whole brains from the decapitated rats were quickly removed, frozen on dry ice, and stored at -15° C. 5-HIAA concentrations were measured by liquid chromatography with electrochemical detection as described by Fuller, R. W.; Snoddy, H. D.; Perry, K. W., Life Sci. 40, 1921 (1987).
as §1

[3] = target: T1, 5-HT1A receptors; assay: in vivo elevation of serum corticosterone levels (5-HT1A agonist activity); conditions: sc, one hour after treatment
Experimental: as §2, §1

Compound: CCCN(CCC)C1CCc2cccc(-c3cc[nH]n3)c2C1 (stereo not drawn) [Example 33, 2-Di-n-propylamino-8-(pyrazol-3-yl)-1,2,3,4-tetrahydronaphthalene]
- IC50 [1]: 4.9 nM
- 5-HIAA MED (minimum effective dose lowering brain 5-HIAA levels) [2]: > 1.0 mg/kg
- Corticosterone MED (minimum effective dose elevating serum corticosterone levels) [3]: > 1.0 mg/kg
